Key:
Puccinia recondita = assay: Puccinia test (wheat)/curative; format: in vivo; details: curative spray 48 hours after inoculation, application rate 25 g/ha, evaluation 10 days after inoculation
Procedure: Puccinia test (wheat)/curative
Solvent: 25 parts by weight of N,N-dimethylacetamide
Emulsifier: 0.6 part by weight of alkylaryi polyglycol ether
To produce a suitable preparation of active compound, 1 part by weight of active compound combination is mixed with the stated amounts of solvent and emulsifier, and the concentrate is diluted with water to the desired concentration.
To test for curative activity, young plants are inoculated with a spore suspension of Puccinia recondita in a 0.1% strength aqueous agar solution. 48 hours after the inoculation, the plants are sprayed with the preparation of active compound at the stated application rate.
The plants are placed in a greenhouse at a temperature of about 20° C. and a relative atmospheric humidity of about 80% to promote the development of rust pustules.
Evaluation is carried out 10 days after the inoculation. 0% means an efficacy which corresponds to that of the control, whereas an efficacy of 100% means that no infection is observed.

Leptosphaeria nodorum = Leptosphaeria nodorum test (wheat)/protective; format: in vivo; details: protective spray, application rate 100 g/ha, evaluation 10 days after inoculation
Procedure: Leptosphaeria nodorum test (wheat)/protective Solvent: 25 parts by weight of N,N-dimethylacetamide Emulsifier: 0.6 part by weight of alkylaryl polyglycol ether To produce a suitable preparation of active compound, 1 part by weight of active compound combination is mixed with the stated amounts of solvent and emulsifier, and the concentrate is diluted with water to the desired concentration. To test for protective activity, young plants are sprayed with the preparation of active compound at the stated application rate. After the spray coating has dried on, the plants are sprayed with a spore suspension of Leptosphaeria nodorum. The plants remain in an incubation cabin at 20° C. and 100% relative atmospheric humidity for 48 hours. The plants are placed in a greenhouse at a temperature of about 15° C. and a relative atmospheric humidity of 80%. Evaluation is carried out 10 days after the inoculation. 0% means an efficacy which corresponds to that of the control, whereas an efficacy of 100% means that no infection is observed.

SMILES: CO/N=C(/C(=O)OC)c1ccccc1CO/N=C(\C)c1cccc(C(F)(F)F)c1 [Ex. (I), 2-[α-{[(α-methyl-3-trifluoromethylbenzyl)imino]oxy}-o-tolyl]glyoxylic acid methyl ester O-methyl oxime]
- Efficacy in % (Puccinia recondita): 0%
- Efficacy in % (Leptosphaeria nodorum): 67%

SMILES: OC(Cc1ccccc1Cl)(Cn1nc[nH]c1=S)C1(Cl)CC1 (stereo not shown) [Ex. (II)]
- Efficacy in % (Puccinia recondita): 43%
- Efficacy in % (Leptosphaeria nodorum): 56%

— patent US20060004070A1, “Fungicidal active substance combinations” (priority 2002, published 2006)
